Data from US9540392B2, “Thienopyrimidines” (BAYER PHARMA AKTIENGESELLSCHAFT, priority 2012, dated 2017).

These molecules were tested against T1, human full-length MKNK1 (Homo sapiens, UniProt Q9BUB5, T385D) (assay: MKNK1 kinase high ATP assay (TR-FRET)). Details: 2 mM ATP, after preincubation with MKNK1; read-out: MKNK1 IC50 (MKNK1 high ATP).
T1 construct: GST (N); purchased Carna Biosciences 02-145; host or cells: insect cells (baculovirus expression system)
Format: biochemical
Method in brief: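 Compound was preincubated 15 min at 22° C. with MKNK1 in 50 mM HEPES pH 7.5, 5 mM MgCl2, 1.0 mM DTT, then the reaction ran 30 min at 22° C. with 2 mM ATP and 0.06 μM biotinylated peptide (final).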

T1 sequence (Q9BUB5 1-424 isoform Q9BUB5-2 T344D): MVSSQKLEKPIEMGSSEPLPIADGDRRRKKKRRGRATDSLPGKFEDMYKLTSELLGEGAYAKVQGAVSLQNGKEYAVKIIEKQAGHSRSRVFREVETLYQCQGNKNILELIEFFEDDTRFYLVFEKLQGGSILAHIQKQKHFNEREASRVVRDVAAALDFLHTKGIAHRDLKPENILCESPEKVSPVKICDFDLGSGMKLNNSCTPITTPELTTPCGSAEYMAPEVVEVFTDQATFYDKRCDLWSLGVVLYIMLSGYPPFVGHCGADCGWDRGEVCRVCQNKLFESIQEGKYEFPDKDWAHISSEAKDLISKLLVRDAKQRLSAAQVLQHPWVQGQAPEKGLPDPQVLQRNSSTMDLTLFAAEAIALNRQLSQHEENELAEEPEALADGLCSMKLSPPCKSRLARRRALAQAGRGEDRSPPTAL

IC50 [nM] | SMILES
3 | Cc1ccccc1NC(=O)C1CCc2c(sc3ncnc(Nc4ccc5[nH]ncc5c4)c23)C1 (centres unmarked) [Example 15, 4-(1H-indazol-5-ylamino)-N-(2-methylphenyl)-5,6,7,8-tetrahydro[1]benzothieno[2,3-d]pyrimidine-7-carboxamide]
0.2 | CC(C)Oc1cc2[nH]ncc2cc1Nc1ncnc2sc3c(c12)CCC(C(=O)N(C)CCO)C3 (racemic) [Example 230, (RS)—N-(2-Hydroxyethyl)-4-[(6-isopropoxy-1H-indazol-5-yl)amino]-N-methyl-5,6,7,8-tetrahydro[1]benzothieno[2,3-d]pyrimidine-7-carboxamide]
4.9 | CN(Cc1cccc(F)c1)C(=O)C1CCc2c(sc3ncnc(Nc4ccc5[nH]ncc5c4)c23)C1 (racemic) [Example 145, (RS)-N-(3-fluorobenzyl)-4-(1H-indazol-5-ylamino)-N-methyl-5,6,7,8-tetrahydro[1]benzothieno[2,3-d]pyrimidine-7-carboxamide]
24.7 | Cc1cccc(N2CCN(C(=O)C3CCc4c(sc5ncnc(Nc6ccc7[nH]ncc7c6)c45)C3)CC2)c1 (racemic) [Example 111, (RS)-[4-(1H-indazol-5-ylamino)-5,6,7,8-tetrahydro[1]benzothieno[2,3-d]pyrimidin-7-yl][4-(3-methylphenyl)piperazin-1-yl]methanone]
20.4 | CC(C)(C)CNC(=O)C1CCc2c(sc3ncnc(Nc4ccc5[nH]ncc5c4)c23)C1 (racemic) [Example 113, (RS)-N-(2,2-dimethylpropyl)-4-(1H-indazol-5-ylamino)-5,6,7,8-tetrahydro[1]benzothieno[2,3-d]pyrimidine-7-carboxamide]
20.6 | CCN(CC)CCN(C)C(=O)C1CCc2c(sc3ncnc(Nc4ccc5[nH]ncc5c4)c23)C1 (racemic) [Example 95, (RS)-N-[2-(diethylamino)ethyl]-4-(1H-indazol-5-ylamino)-N-methyl-5,6,7,8-tetrahydro[1]benzothieno[2,3-d]pyrimidine-7-carboxamide]
9.4 | O=C(C1CCc2c(sc3ncnc(Nc4ccc5[nH]ncc5c4)c23)C1)N1CCN(c2ccncc2)CC1 (racemic) [Example 112, (RS)-[4-(1H-indazol-5-ylamino)-5,6,7,8-tetrahydro[1]benzothieno[2,3-d]pyrimidin-7-yl][4-(pyridin-4-yl)piperazin-1-yl]methanone]
18.3 | CS(=O)(=O)N1CCN(C(=O)C2CCc3c(sc4ncnc(Nc5ccc6[nH]ncc6c5)c34)C2)CC1 (racemic) [Example 156, (RS)-[4-(1H-indazol-5-ylamino)-5,6,7,8-tetrahydro[1]benzothieno[2,3-d]pyrimidin-7-yl][4-(methylsulfonyl)piperazin-1-yl]methanone]
32.5 | COCCCN1CCN(C(=O)C2CCc3c(sc4ncnc(Nc5ccc6[nH]ncc6c5)c34)C2)CC1 (racemic) [Example 153, (RS)-[4-(1H-indazol-5-ylamino)-5,6,7,8-tetrahydro[1]benzothieno[2,3-d]pyrimidin-7-yl][4-(3-methoxypropyl)piperazin-1-yl]methanone]
16.4 | CCOC(=O)N1CCN(C(=O)C2CCc3c(sc4ncnc(Nc5ccc6[nH]ncc6c5)c34)C2)CC1 (racemic) [Example 103, (RS)-ethyl4-{[4-(1H-indazol-5-ylamino)-5,6,7,8-tetrahydro[1]benzothieno[2,3-d]pyrimidin-7-yl]carbonyl}piperazine-1-carboxylate]
14.5 | O=C(C1CCc2c(sc3ncnc(Nc4ccc5[nH]ncc5c4)c23)C1)N1CCN(c2ccccc2)CC1 (racemic) [Example 106, (RS)-[4-(1H-indazol-5-ylamino)-5,6,7,8-tetrahydro[1]benzothieno[2,3-d]pyrimidin-7-yl](4-phenylpiperazin-1-yl)methanone]
8.1 | Cc1cnc(CNC(=O)C2CCc3c(sc4ncnc(Nc5ccc6[nH]ncc6c5)c34)C2)cn1 (racemic) [Example 148, (RS)-4-(1H-indazol-5-ylamino)-N-[(5-methylpyrazin-2-yl)methyl]-5,6,7,8-tetrahydro[1]benzothieno[2,3-d]pyrimidine-7-carboxamide]
7.3 | CN(C)C1CCN(C(=O)C2CCc3c(sc4ncnc(Nc5ccc6[nH]ncc6c5)c34)C2)C1 (racemic) [Example 205, (RS)-[3-(dimethylamino)pyrrolidin-1-yl][4-(1H-indazol-5-ylamino)-5,6,7,8-tetrahydro[1]benzothieno[2,3-d]pyrimidin-7-yl]methanone]
16.8 | CN(CCCCO)C(=O)C1CCc2c(sc3ncnc(Nc4ccc5[nH]ncc5c4)c23)C1 (racemic) [Example 193, (RS)-N-(4-hydroxybutyl)-4-(1H-indazol-5-ylamino)-N-methyl-5,6,7,8-tetrahydro[1]benzothieno[2,3-d]pyrimidine-7-carboxamide]
6 | O=C(NCC1CC1)C1CCc2c(sc3ncnc(Nc4ccc5[nH]ncc5c4)c23)C1 (centres unmarked) [Example 7, N-(Cyclopropylmethyl)-4-(1H-indazol-5-ylamino)-5,6,7,8-tetrahydro[1]benzothieno[2,3-d]pyrimidine-7-carboxamide]
9.1 | O=C(NC1CC1)C1CCc2c(sc3ncnc(Nc4ccc5[nH]ncc5c4)c23)C1 (racemic) [Example 80, (RS)-N-Cyclopropyl-4-(1H-indazol-5-ylamino)-5,6,7,8-tetrahydro[1]benzothieno[2,3-d]pyrimidine-7-carboxamide]
15.1 | O=C(C1CCc2c(sc3ncnc(Nc4ccc5[nH]ncc5c4)c23)C1)N1CCN2CCCCC2C1 (racemic) [Example 192, (RS)-[4-(1H-indazol-5-ylamino)-5,6,7,8-tetrahydro[1]benzothieno[2,3-d]pyrimidin-7-yl](octahydro-2H-pyrido[1,2-a]pyrazin-2-yl)methanone]
0.4 | COc1cc2[nH]ncc2cc1Nc1ncnc2sc3c(c12)CCC(C(=O)N(C)CCO)C3 (racemic) [Example 172, (RS)—N-(2-Hydroxyethyl)-4-[(6-methoxy-1H-indazol-5-yl)amino]-N-methyl-5,6,7,8-tetrahydro[1]benzothieno[2,3-d]pyrimidine-7-carboxamide]
0.5 | CCOc1cc2[nH]ncc2cc1Nc1ncnc2sc3c(c12)CCC(C(=O)N1CC[C@@H](O)C1)C3 (mixture of isomers) [Example 233, {(7RS)-4-[(6-Ethoxy-1H-indazol-5-yl)amino]-5,6,7,8-tetrahydro[1]benzothieno[2,3-d]pyrimidin-7-yl}[(3R)-3-hydroxypyrrolidin-1-yl]methanone]
3 | COc1ccccc1CNC(=O)C1CCc2c(sc3ncnc(Nc4ccc5[nH]ncc5c4)c23)C1 (centres unmarked) [Example 22, 4-(1H-Indazol-5-ylamino)-N-(2-methoxybenzyl)-5,6,7,8-tetrahydro[1] benzothieno[2,3-d] pyrimidine-7-carboxamide]
1.2 | CCOc1cc2[nH]ncc2cc1Nc1ncnc2sc3c(c12)CCC(C(=O)N1CCC(C#N)C1)C3 (racemic) [Example 265, (3RS)-1-({(7RS)-4-[(6-Ethoxy-1H-indazol-5-yl)amino]-5,6,7,8-tetrahydro[1]benzothieno[2,3-d]pyrimidin-7-yl}carbonyl)pyrrolidine-3-carbonitrile]
7 | COc1ccc(NC(=O)C2CCc3c(sc4ncnc(Nc5ccc6[nH]ncc6c5)c34)C2)cc1 (centres unmarked) [Example 14, 4-(1H-indazol-5-ylamino)-N-(4-methoxyphenyl)-5,6,7,8-tetrahydro[1]benzothieno[2,3-d]pyrimidine-7-carboxamide]
28.8 | O=C(C1CCc2c(sc3ncnc(Nc4ccc5[nH]ncc5c4)c23)C1)N1CCN(Cc2ccccn2)CC1 (racemic) [Example 154, (RS)-[4-(1H-indazol-5-ylamino)-5,6,7,8-tetrahydro[1]benzothieno[2,3-d]pyrimidin-7-yl][4-(pyridin-2-ylmethyl)piperazin-1-yl]methanone]
0.2 | CCOc1cc2[nH]ncc2cc1Nc1ncnc2sc3c(c12)CCC(C(=O)N1CCCC1)C3 (racemic) [Example 228, (RS)-{4-[(6-Ethoxy-1H-indazol-5-yl)amino]-5,6,7,8-tetrahydro[1]benzothieno[2,3-d]pyrimidin-7-yl}(pyrrolidin-1-yl)methanone]
0.4 | CCOc1cc2[nH]ncc2cc1Nc1ncnc2sc3c(c12)CCC(C(=O)N(C)CCN)C3 (racemic) [Example 271, (RS)-5-({7-[(2-Ammonioethyl)(methyl)carbamoyl]-5,6,7,8-tetrahydro[1]benzothieno[2,3-d]pyrimidin-4-yl}amino)-6-ethoxy-1H-indazol-1-ium bis(trifluoroacetate)]
12.5 | O=C(C1CCc2c(sc3ncnc(Nc4ccc5[nH]ncc5c4)c23)C1)N1CCN(c2cnccn2)CC1 (racemic) [Example 114, (RS)-[4-(1H-indazol-5-ylamino)-5,6,7,8-tetrahydro[1]benzothieno[2,3-d]pyrimidin-7-yl][4-(pyrazin-2-yl)piperazin-1-yl]methanone]
1 | CCN(C)C(=O)C1CCc2c(sc3ncnc(Nc4cc5cn[nH]c5cc4OC(C)C)c23)C1 (racemic) [Example 217, (RS)—N-Ethyl-N-methyl-4-{[6-(propan-2-yloxy)-1H-indazol-5-yl]amino}-5,6,7,8-tetrahydro[1]benzothieno[2,3-d]pyrimidine-7-carboxamide]
9 | O=C(C1CCc2c(sc3ncnc(Nc4ccc5[nH]ncc5c4)c23)C1)N1CCC1 (centres unmarked) [Example 43, Azetidin-1-yl[4-(1H-indazol-5-ylamino)-5,6,7,8-tetrahydro[1]benzothieno [2,3-d]pyrimidin-7-yl]methanone]
10.7 | O=C(C1CCc2c(sc3ncnc(Nc4ccc5[nH]ncc5c4)c23)C1)N1CCC(c2ccccc2)CC1 (racemic) [Example 127, (RS)-[4-(1H-indazol-5-ylamino)-5,6,7,8-tetrahydro[1]benzothieno[2,3-d]pyrimidin-7-yl](4-phenylpiperidin-1-yl)methanone]
